pIC50: −log10 of the molar value.
Tests used:
[1] = system: PVR; assay: Flow cytometry of PVR expression on CT26 cells in vitro; format: cell-based, mouse; settings: 20 μM, 24 h
Description: (§1) Cells in good growth condition were harvested and used to detect the expression of CD47 and PVR. Antibodies anti-human CD47 APC, anti-human PVR PE, anti-mouse-CD47 APC, anti-mouse-PVR APC, and matched isotype controls were purchased from eBioscience, San Diego, CA, USA. The effects of azelnidipine on the expression of CD47 and PVR was determined by incubating CT26 cells with 20 μM of azelnidipine for 24 h, or directly analyzing the tumor cells from tumor tissues of CT26-bearing mice treated with or without azelnidipine.
(§2) Figure S3. The effects of Azelnidipine on the expression of CD47 and PVR on CT26 tumor cells. (A and B) CT26 cells were incubated with 20 μM Azelnidipine or vehicle control for 24h, and analyzed the expression of CD47 (A) and PVR (B). The gray shaded histogram represents the isotype, the red line represents the cells treated with vehicle control, and the blue line represents the cells treated with Azelnidipine. (C and D) Tumor cells (CD45-) derived from the tumor tissues of CT26 tumor-bearing mice treated with normal saline (NS) or 5 mg/kg Azelnidipine for twelve days, were analyzed for the expression of CD47 (C) and PVR (D). n.s. means not […]
(§3) (1 picture or pasted object on this page, not shown here)

[2] = system: PVR; assay: Flow cytometry of PVR expression on tumor cells from CT26-bearing mice; format: in vivo, mouse; settings: 5 mg/kg for twelve days, CD45- tumor cells
Description: as §1, §2, §3

[3] = system: various tumor cells; set-up: method as in earlier work; settings: cited from earlier work
[4] = biological target: T1, mouse TIGIT/PVR (Mus musculus, UniProt F6V4I7); assay: Blocking assay, mouse PVR protein binding to CHOK1-mTIGIT cells; settings: concentration gradient; read-out: IC50, blocking mouse TIGIT/PVR (mPVR binding)
T1 construct: purchased Sino Biological 50259-M03H; host or cells: soluble protein purchased; TIGIT on CHOK1-mTIGIT cells (lenti-viral transfection)
T1 sequence (F6V4I7 29-408): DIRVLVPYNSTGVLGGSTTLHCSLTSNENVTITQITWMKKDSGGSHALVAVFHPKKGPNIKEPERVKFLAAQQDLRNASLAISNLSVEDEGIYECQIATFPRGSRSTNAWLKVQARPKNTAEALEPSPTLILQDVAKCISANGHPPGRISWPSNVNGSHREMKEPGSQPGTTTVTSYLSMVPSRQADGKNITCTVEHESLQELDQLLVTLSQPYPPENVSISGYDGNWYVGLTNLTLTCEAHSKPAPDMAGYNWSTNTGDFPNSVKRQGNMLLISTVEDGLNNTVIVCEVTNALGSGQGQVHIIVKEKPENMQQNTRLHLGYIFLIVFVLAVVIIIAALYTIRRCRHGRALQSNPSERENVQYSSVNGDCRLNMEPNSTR
Description: The abilities of small molecule inhibitors (SMIs) (purchased from TargetMol, Shanghai, China) to block the binding of SIRPα protein to CHOK1-CD47 cells or PVR protein to CHOK1-TIGIT cells were determined by flow cytometry, as previously reported. The SMIs at indicated concentrations were incubated with Fc-tagged SIRPα or PVR protein for 30 min at 4°C, followed by incubating with the indicated cells for another 30 min. Human SIRPα protein (SIA-[…], ACRO Biosystem, Beijing, China), mouse SIRPα protein (SIA-[…], ACRO Biosystem, Beijing, China), human PVR protein (CD5-[…], ACRO Biosystem, Beijing, China), and mouse PVR protein (50259-[…], Sino Biological, Beijing, China) were used. PE-conjugated anti-human IgG antibody was used to detect the Fc protein bind to cells. Cells incubated with the Fc proteins and anti-human IgG antibody without the SMIs serve as the positive control. The mean fluorescent intensity (MFI) of each sample was detected and recorded by a flow cytometry. The blocking efficacy of the SMIs was calculated as the equation: (MFI of the positive control-MFI of the SMI)/MFI of the positive control × 100%.

- pIC50 [4]: ~4.09
Structure (SMILES): CC1=C(C(=O)OC(C)C)C(c2cccc([N+](=O)[O-])c2)C(C(=O)OC2CN(C(c3ccccc3)c3ccccc3)C2)=C(N)N1 (stereo not shown) [Azelnidipine]
- expression of PVR on CT26 cells [1]: slightly inhibit
- expression of PVR on CT26 tumor cells derived from tumor tissues [2]: could inhibit the expression of PVR
- growth of various tumor cells in vitro [3]: inhibit the growth of various tumor cells in vitro

Reference: article PMC8150775, “Repositioning Azelnidipine as a Dual Inhibitor Targeting CD47/SIRPα and TIGIT/PVR Pathways for Cancer Immuno-Therapy” (Biomolecules, 2021)
